Measured values taken from patent US7883785B2, “Rhodium and iridium complexes” (Merck Patent GmbH, priority 2002, dated 2011).

Assay: Solubilities of various complexes in toluene at 20° C.
Type: physicochemical
Settings: table title: Solubilities of various complexes

Solubility in toluene at 20° C. [mg/mL]	Structure (SMILES)
32	Cc1ccc(C)c(-c2ccc3[c](c2)[Ir-3]24([c]5cc(-c6cc(C)ccc6C)ccc5-c5cccc[n+]52)([c]2cc(-c5cc(C)ccc5C)ccc2-c2cccc[n+]24)[n+]2ccccc2-3)c1 [Compound 7, fac-Tris[2-(2-pyridinyl-κN)(5-(2,5-dimethylphenyl)phenyl)-κC]-iridium(III)]
6.3	c1ccc(-c2ccc3[c](c2)[Ir-3]24([c]5cc(-c6ccccc6)ccc5-c5cccc[n+]52)([c]2cc(-c5ccccc5)ccc2-c2cccc[n+]24)[n+]2ccccc2-3)cc1 [Compound 1, fac-Tris[2-(2-pyridinyl-κN)(5-(phenyl)phenyl)-κC]iridium(III)]
25	Cc1ccccc1-c1ccc2[c](c1)[Ir-3]13([c]4cc(-c5ccccc5C)ccc4-c4cccc[n+]41)([c]1cc(-c4ccccc4C)ccc1-c1cccc[n+]13)[n+]1ccccc1-2 [Compound 2, fac-tris[2-(2-pyridinyl-κN)(5-(o-tolyl)phenyl)-κC]iridium(III)]
92	CC(C)COc1ccc(-c2ccc3[c](c2)[Ir-3]24([c]5cc(-c6ccc(OCC(C)C)c(OCC(C)C)c6)ccc5-c5cccc[n+]52)([c]2cc(-c5ccc(OCC(C)C)c(OCC(C)C)c5)ccc2-c2cccc[n+]24)[n+]2ccccc2-3)cc1OCC(C)C [Compound 8, fac-Tris[2-(2-pyridinyl-κN)(5-(3,4-bis(2-methylpropoxy)phenyl)phenyl)-κC]iridium(III)]
